The values below come from patent publication US20170074857A1, “MEDICATION ADHERENCE MONITORING DEVICE” (UNIVERSITY OF FLORIDA RESEARCH FOUNDATION, INC., priority 2014, published 2017).

The term MRT last denotes the average time that molecules of a dose stay in the body.

The test system of series [1] is human carboxylesterases and tissue esterases. The following applies: metabolized by human carboxyesterases and tissue esterases; cited from earlier work.
For series [2] the following is noted: cited from earlier work.
The conditions of series [3]: orally; FDA Q3C guidance; cited from earlier work.
The conditions of series [4]: cited from earlier work. The source holds these as a separate data set.
Series [5] in a line: Example 4a: noncompartmental pharmacokinetics of exhaled 2-butanone and 2-pentanone by mGC. It counts as in vivo, human. The following applies: human, in vivo. The text has this:
Test Materials. […] 2-butanol was purchased from Penta Manufacturing Company (Fairfield, N.J.). 2-pentanol and L-carvone were purchased from Sigma-Aldrich (St. Louis, Mo.). […] 2-pentanone was also used as a taggant, but we hypothesized that its inherent volatility would allow exhalation without need for metabolism. L-carvone tastes like spearmint and was used as a flavor mask. All capsules were filled on the day of the experiment.
Subject Enrollment and Protocol. This protocol (20100140) was approved by the Western Institutional Review Board (Olympia, Wash.). Healthy subjects (n=5) aged >18 years of age and of either sex were recruited. Informed, written consent was obtained from all enrolled subjects. The study consisted of a single experimental limb with six replicates per subject. Therefore, for five subjects with six replicated experiments, a total of 30 studies were performed. Subjects were free to eat ad lib prior to participation in the study. At commencement of the experiments, subjects provided a baseline breath sample (designated time 0 min) into the mGC for analysis as described subsequently. Then, subjects orally consumed the previously detailed capsule with 177 mL (6 ounces) of water. Following ingestion, we observed the breath concentration-time relationships of 2-butanone and 2-pentanone by collecting single-breath samples at times 5, 10, 15, 20, 30, 45, and 60 min. After 60 min, the experiment was concluded. After at least one day's respite, subjects returned for replicate experiments on five additional occasions.
2-Butanone and 2-Pentanone Measurement in Human Breath by mGC. Breath specimens were analyzed “real-time” to measure the concentrations of 2-butanone and 2-pentanone using the mGC (Xhale, Inc. Gainesville, Fla.) as previously described. In brief, a mouthpiece (FST®, Intoximeters, Inc., St. Louis, Mo.) was attached to the inlet of the mGC. A 15 mL side-stream sample was aspirated during a single exhalation over 5 s through this inlet port to a room temperature concentrator trap containing 4 mg of Tenax TA (Sigma-Aldrich). The trap temperature was then increased to 130° C. and the volatile components transferred to a 5 m by 0.53 mm internal diameter, metal clad, BAC-1 capillary column (Restek Corp, Bellefonte, Pa.) operated at 55° C. The effluent from the column then flowed to the metal oxide detectors. Separation of the markers from other volatile organic compounds present in the sample (i.e., acetone and isoprene) occurred in approximately 2 min. Data were tabulated and graphically presented over time to determine the concentrations of 2-butanone and 2-pentanone in a given breath specimen. Data are reported in parts-per-billion (ppb) based on molar fractions to account for differing ambient atmospheric pressures and temperature.
Pharmacokinetic Analysis. Analyte breath concentrations reported as ppb were converted to ng/mL by multiplying each concentration by the molecular weight of the respective molecule to allow proper functioning of conventional PK software for noncompartmental analysis (WinNonlin 5.2, Pharsight Corporation, St. Louis, Mo.). Estimates were generated for the following PK parameters (abbreviation, unit): first-order elimination rate constant (Lambda Z, min-1), half-life of elimination (Half-life, min), maximal drug concentration (CMAX, μg/mL), time at maximal drug concentration (TMAX, min), area under concentration versus time curve from zero to the last time point (AUC0-LAST, min*μg/mL), area under concentration versus time curve from zero to infinity (AUC0-∞, min*μg/mL), percentage of area under concentration versus time curve from zero to infinity, which is extrapolated from AUC0-t (% AUC Extrap) and the mean residence time (MRT, min). The area under concentration versus time curve (AUC) was calculated using the linear trapezoidal rule. All values are reported separately for each subject as mean±standard deviation following conversion from ng/mL to ppb. […]

Series [6] can be described thus: Example 30: sodium alkyl carbonates, stability and breath ketones after ingestion (FIG. 83). Here is the method:
Isopropanol (1000 mL) was taken lab reactor and added Na metal (6 g). The reaction mixture was heated to 80° C. for 3 h (sodium metal dissolved, clear solution was observed). The reaction mixture was cooled to 0 to 5° C. and purged CO2 (thick suspension was observed after 30 min). Aliquot were drawn after 30 min, concentrated and the solid obtained was analyzed by 1H NMR. The reaction mixture was allowed to stir for additional 30 min. The complete reaction mixture was rinsed with isopropanol (100 mL) and transferred to an R.B flask, concentrated under vacuum to get white solid. The solid obtained after concentration was dried under vacuum at 40° C. at 1 h to get 26 g of white solid.
Sodium isopropoxy carbonate is formed according to this method. The MAC from isopropanol seems to decompose at 60° C. MAC on treatment with water decomposes and white solid was isolated.
The solution was cooled to between 0 and 5° C. and purged with CO2 for 45 minutes. The resulting suspension was concentrated under high vacuum at 40-50° C. to obtain 15 g of white solid. ^1H-NMR: δ ppm (in D2O)=0.89 (triplet, 3H), 1.17 (doublet, 3H), 1.50 (multiplet, 2H), 4.38 (multiplet, 1H) ^13C-NMR: δ ppm (in D2O)=9.48, 19.59, 28.97, 73.96 and 159.61. IR: ν (cm^−1)=1651, 1458, 1369 and 1289 (indicative of an alkyl carboxylate).
Synthesis 2: Six grams of Na metal was dissolved in 100 mL of anhydrous isopropanol at 80° C. […]

A further series in a line: clinical. The following applies: human, exhaled breath, oral, 100 mg.
A short description of series [7]: Example 26: breath d6-acetone after 100 mg d8-isopropanol per diem for 5 days (LTQ-LCMS). The following applies: in vivo; for Half-life: human, 100 mg. Here is the method: 100 mg aliquots (125 μL) of neat d8-isopropanol were ingested at 24 h intervals for a period of 5 days. Each aliquot was administered in a size 0 LiCap along with ˜200 mL of water.
Each breath sample consisted of a single full breath exhaled directly into the modified ESI source.
Following the ingestion of each aliquot, breath samples were taken every 2 min for the first 30 min following ingestion, every 5 min from 30-60 min after ingestion and every 10 min from 60-120 min. Additional breath samples were collected at ˜9 h and 20 h after ingestion. After the final dose, breath samples were taken once every 24 h for the next 3 days (total study time=8 days).

Test in series [8]: not given
This is another data set of the same source.

For series [9] the following is noted: in vivo. The text has this: FIG. 79. […] The experimental data was curve fit (parameter estimates±SE) to Equation 1 using a non-linear, least squares (Marquardt-Levenburg) algorithm (SigmaPlot 11, Systat Software, Inc., San Jose, Calif.). […] Note: the logarithmic scale is used on the y axis.
These times are indicated by the short vertical lines on the time axis. […] The y axis is plotted on the log 10 scale.
As it relates to the SMART® Adherence System, the concentration rise (rapid absorption of AEM and conversion to EDIM) and decay of the EDIM with time in breath following oral administration of the AEM is well described by a 1 compartmental (monoexponential) pharmacokinetic (PK) model, reflecting absorption and elimination, which can be described by the following equation (dertived from Miller's Anesthesia, 6th Edition, p 81, 2005, Ed: Ronald D. Miller, Elsevier Churchill Livingstone, Philadelphia, Pa.):
In this example, an initial 1st AEM dose pharmacokinetic (PK) analysis over a period of 0 to a maximum of 24 hours is carried out. […] Note: To ensure an accurate EDIM t1/2a ideally the last time point measured in this 1st dose PK analysis includes the EDIM trough concentration (i.e., the concentration at the time point just prior to the 2nd dose). The AEM could either consist of ordinary or non-ordinary cold isotopes, which generate ordinary and non-ordinary cold isotopic labeled EDIMs. The EDIM levels in breath are measured using the appropriate SMART® device type as disclosed herein.

Like-named read-outs stand apart in the source and are kept apart here.

Turning to `CCCCOC(=O)c1ccc(O)cc1` [Butyl paraben], the “Breath Metabolites” value in series [1] is on record as “Butanol + POHBA”.
`C[S+](C)[O-]` [DMSO, dimethyl sulfoxide]: the elimination half life in series [2] (humans) was 12 to 15 h. Also, in series [3], the “permissible daily exposure (PDE)” value is given as 50 mg/day.
For the molecule `CCOC(=O)c1ccc(O)cc1` [Ethyl paraben], in series [1], the “Breath Metabolites” value is “Ethanol + POHBA”.
In the case of `CCCC(C)O` (centres unmarked) [Formulation 2-pentanol, 2-pentanol], the “LD50 Oral Rat” value in series [4] (oral) is on record as 1470 mg/kg.
Turning to `CCCC(C)=O` [Formulation 2-pentanone, 2-pentanone], in series [5] (both sexes, Half-life), the Half-life worked out at 23.7 min. The molecule further showed an MRT last in series [5] (both sexes, MRT0-Last) of 25.2 min. In [5] (both sexes, MRT0-last), this molecule showed an MRT last of 25.4 min. This molecule also had a TMAX in series [5] (both sexes, TMAX) of 14.8 min. In [5] (both), the “TThresh range between replicates” value was 5 to 7 min. In series [5], the AUC0-8 is listed as 58214 min · ppb and the “observed CMAX range” value is on record as 536-2,072 ppb.
`CC(C)OC(=O)O` [MAC from isopropanol, Sodium Isopropyl Carbonate]: the “temperature at which it seems to decompose” value in series [6] was determined as 60 °C.
Turning to `COC(=O)c1ccc(O)cc1` [Methyl paraben], the “Breath Metabolites” value in series [1] is given as “Methanol + para- hydroxybenzoic acid (POHBA)”.
As for `CC(C)=O` [acetone], the “average elimination half life in humans” value in [2] (Jones, J Anal Toxicol 2000) was 22 h. Further, the “metabolic/elimination half life in humans” value in series [2] (Jones, J Anal Toxicol 2000) was 17 to 27 h. For the same molecule, the Half-life in “clinical” is < 600 min; in series [7] (elimination half life in breath, Example 26 / FIG. 74, after d8-IPA) it was ~384 min; in series [7] (half-life of acetone derived from IPA, exhaled breath), ~390 min. Where the note is “100 mg IPA daily”, the “time for trough concentrations to reach steady state” value lay in the range of 1 to 2 days. This molecule returned a breath concentration (100 mg IPA for 5 successive days, Type 1 (mGC) device) of 2700 to 3000 ppb. The maximum breath concentration (100 mg IPA oral) was determined as 2800 ppb. Under “100 mg IPA oral, 15 and 30 min”, the “rise of breath concentration over baseline” value is recorded as “greater than 6 ×”. For the same molecule, the “CMAX assuming dose proportionality” value in [8] (IPA 138 mg orally per day (PDE)) is 4131 ppb. Moreover, in series [3], the “permissible daily exposure (PDE)” value was 210 mg/day.
`[2H]C([2H])([2H])C(=O)C([2H])([2H])[2H]` [d6-acetone]: in series [9] (human), the TMAX came out at 1.46 h and the “steady state CMAX” value is 1819 ppb. In series [9] (human, 100 mg), the “CMAX, 1st dose” value turned out to be 1561 ppb. In addition, in [9], the FLost turned out to be 0.859, the “accumulation factor (AF)” value is 1.165 and the “steady state CTrough” value is on record as 267 ppb. Further, in series [7], the Average k result was “Average k = −0.1079”, the “elimination half life in breath” value was determined as 6.4 h, the “exhaled breath peak height” value is given as 62000 peak height and the “time after a dose up to which deviations from steady state are detectable” value is given as “up to 65 hours”. The t½ entry in series [7] was “t½ ≃ 6.4 h”. Besides, the “maximum peak response remaining after 24 h” value in series [7] (24 h) is recorded as 6-10%. For the same molecule, the TMAX in series [8] (100 mg d8-IPA) turned out to be 3 h. Besides, the “maximum breath concentration (CMAX)” value in series [8] (100 mg d8-IPA, assuming breath acetone of 582 ppb) is listed as 2,993 ppb.
As to `[2H]OC([2H])(C([2H])([2H])[2H])C([2H])([2H])[2H]` [d8-IPA, d8-isopropanol], in series [8] (single 100 mg dose), the OrbiTrap peak height is listed as 360,000 peak height and the “OrbiTrap response relative to background endogenous breath acetone” value was “approximately 5.14 ×”.
With `CCOC(=O)C(C)C` [ethyl isobutyrate], in [4] (oral), the “LD50 Oral Rat” value is 13000 mg/kg.
Turning to `CCCCCCOC(C)=O` [hexyl acetate], in [4] (oral), the “LD50 Oral Rat” value was 30147 mg/kg.
Turning to `CC(=O)OCCC(C)C` [isoaryl (isopentyl) acetate], the “LD50 Oral Rat” value in series [4] (oral) is on record as 16600 mg/kg.
Regarding `CCC(=O)OC` [methyl propionate], the “LD50 Oral Rat” value in series [4] (oral) is recorded as 5000 mg/kg.
Turning to `COC(=O)C(C)C` [methylisobutyrate], the “LD50 Oral Rat” value in series [4] (oral) was 5000 mg/kg.
Take `CCCOC(C)=O` [propyl acetate]: in series [4] (in vivo, po), the “LD50 Oral Rat” value is recorded as 9370 mg/kg.
